Measured values: patent US4816463A, “Substituted diimidazo [1,5-a: 4',5'-d]pyridines having antihypertensive activity” (Warner-Lambert Company, priority 1987, dated 1989)

Columns and labels:
[1] = target: rat adrenal receptor preparations (angiotensin II binding); assay: inhibition of 125I-angiotensin II binding to rat adrenal receptor preparations; conditions: read-out: IC50 (μM) for inhibition of 125I angiotensin II binding to rat adrenal receptor preparations
[2] = test system: 2 kidney, 1-clip Goldblatt hypertensive rat (RHR); assay: antihypertensive evaluation (AHP3): blood pressure in conscious 2 kidney, 1-clip Goldblatt (renal) hypertensive rats (RHR); type: in vivo; conditions: 30 mg/kg ip in RHR, read-out: Max % decrease in blood pressure
Source text: The continuous monitoring of pulsatile blood pressure (BP) from unrestrained conscious rats surgically equipped with polyethylene cannulas was accomplished by means of a computer assisted data capture scheme (CADCS). The basic elements of the methodology are the cannulation procedure and the CADCS.
Cannulas fabricated from polyethylene tubing were inserted into the aorta via an undersized puncture hole below the renal arteries. The puncture hole was made by a 23 G disposable needle with a section of the aorta clamped off above and below the puncture site. The cannulas, consisting of a PE100 (0.86 mm ID) body and a PE50 (0.58 mm ID) tip, were attached to a trocar, inserted through the psoas muscle, and passed subcutaneously along the midline of the back and externalized between the ears. The cannulas were anchored to the psoas muscle and between the scalulae (3-0 green braided suture). […] Each rat was then given penicillin 30,000 units subcutaneously (Penicillin G Procaine Sterile Suspension).
The rats were fitted with a harness-spring-swivel assembly designed to protect the cannula and to provide the rat relative freedom of movement. The harnesses were fabricated from nylon hook and loop tape cemented to a metal plate to which spring wires (18-8 stainless steel), were attached to brass swivels. […]

[3] = test system: spontaneously hypertensive rat (SHR); assay: antihypertensive evaluation (AHP3): blood pressure in conscious spontaneously hypertensive rats (SHR); type: in vivo; conditions: 30 mg/kg PO in SHR, read-out: Max % decrease in blood pressure
Procedure: Thus, for example, compounds of formula I when administered intrapertoneally or orally to 2 kidney, 1-clip Goldblatt (renal) hypertensive rats (See S. Sen, et al., "Role of Renin-Anfgiotensin System in Chronic Renal Hypertensive Rats," Hypertension 1: 427-4343 (1979) and Clin. Soc. 57: 53-62, 1979, "Antihypertensive Effect of Prolonged Blockade of Angiotensin Formation in Benign and Malignant, one- and two-kidney Goldblatt Hypertensive Rats".) at doses in the range of 1-100 mg/kg cause 10-80 mmHg drops in blood pressure. […] Angiotensin binding inhibition activity and blood pressure lowering activity in renal hypertensive rats of the optimally substituted examples of formula I are listed in Table 1. Blood pressure lowering activity in spontaneously hypertensive rats of optimally substituted examples of formula II are listed in Table 2. […]
CADCS: The pulsatile blood pressure of each of 32 rats was monitored continuously by two signal conditioning units (Gould, Cleve., Ohio). The signals from these units were monitored and digital data for mean, systolic, and diastolic blood pressures as well as for heart rate were calculated every 5 min by two in-laboratory computers (Hewlett Packard, Cupertino, Ca.). […]

IC50 [1] [µM]	SMILES	change in vivo at 30 mg/kg [2] [%]	change in vivo at 30 mg/kg [3] [%]
8	O=C(O)C1Cc2c(ncn2Cc2ccccc2)CN1C(=O)C1c2ccccc2-c2ccccc21 (racemic) [Example 29, 1H-Imidazo[4,5-c]pyridine-6-carboxylic acid, 5-[(9H-fluoren-9-yl)carbonyl]-4,5,6,7-tetrahydro-1-(phenylmethyl)-, (±)-]	-22	
	CSc1ccc(N2C(=O)C3Cc4[nH]cnc4CN3C2=O)cc1 (stereo not drawn) [Example 158, 8a,9-Dihydro-7-[4-(methylthio)phenyl]-1H-diimidazo[1,5-a:4',5'-d]pyridine-6,8(4H,7H)-dione]		-17
